Experimental data: ChEMBL document CHEMBL1156378, “A new dimeric stilbene with tyrosinase inhibitiory activity from Artocarpus gomezianus” (J Nat Prod, 2001)
pIC50: −log10 of the molar value.

Molecular target: T1, Tyrosinase (Agaricus bisporus, UniProt O42713)
T1 sequence (O42713 whole entry): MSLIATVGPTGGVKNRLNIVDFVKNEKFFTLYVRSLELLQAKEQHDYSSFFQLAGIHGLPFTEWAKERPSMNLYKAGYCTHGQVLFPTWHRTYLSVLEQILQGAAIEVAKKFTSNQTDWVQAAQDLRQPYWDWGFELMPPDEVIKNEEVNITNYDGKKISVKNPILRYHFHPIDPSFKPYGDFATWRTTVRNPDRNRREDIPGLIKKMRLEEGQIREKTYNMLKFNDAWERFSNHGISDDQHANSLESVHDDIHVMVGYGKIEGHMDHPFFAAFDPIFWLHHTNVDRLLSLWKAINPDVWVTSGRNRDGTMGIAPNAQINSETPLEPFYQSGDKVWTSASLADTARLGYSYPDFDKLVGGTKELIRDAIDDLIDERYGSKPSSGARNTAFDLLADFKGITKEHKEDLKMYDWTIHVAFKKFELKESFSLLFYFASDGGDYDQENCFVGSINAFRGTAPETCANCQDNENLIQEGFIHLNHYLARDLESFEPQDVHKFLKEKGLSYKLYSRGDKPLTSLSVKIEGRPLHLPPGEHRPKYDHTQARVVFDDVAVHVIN
Description: Inhibition of mushroom tyrosinase

SMILES	pIC50
Oc1cc(O)cc(CC(c2ccc(O)cc2O)c2c(O)cc(/C=C/c3ccc(O)cc3O)cc2O)c1 (configuration not stated) [ANDALASIN A]	4.41
Oc1cc(O)cc(/C=C/c2cc(C(Cc3cc(O)cc(O)c3)c3ccc(O)cc3O)c(O)cc2O)c1 (configuration not stated) [ARTOGOMEZIANOL]	4.17
